Test results from the supplement of paper PMC10307832.

Tests used:
Assay in all cases: relative viability (nuclei count vs DMSO), 5 days (fraction); higher = more cells survive
[1] = compound: CO[C@@H]1[C@H](N(C)C(=O)c2ccccc2)C[C@H]2O[C@]1(C)n1c3ccccc3c3c4c(c5c6ccccc6n2c5c31)C(=O)NC4 [Midostaurin] + COc1cccc2cc(-c3nc([C@H]4CC[C@H](C(=O)O)CC4)n4ncnc(N)c34)[nH]c12 [OSI-027] (partner 0.5 µM)
In short: (§1)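 Values are medians from duplicate plates. Each reflects relative viability, defined as the nuclei count of treated wells over that of vehicle wells. Lung cancer cell lines in 1536-well plates were pin-tool dosed one day after seeding with one drug alone or with a fixed anchor-drug dose plus five library-drug doses (not always all listed) in √10 steps, then fixed, stained and imaged at 4× after 5 days.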

[2] = compound: COc1cc(-c2nn([C@H]3CC[C@H](N4CCN(C(C)=O)CC4)CC3)c3ncnc(N)c23)ccc1NC(=O)c1cc2ccccc2n1C + NC(=O)Nc1cc(-c2cccc(F)c2)sc1C(=O)N[C@H]1CCCNC1 [AZD7762] (partner 0.2 µM)
In short: as §1

[3] = compound: CO[C@@H]1[C@H](N(C)C(=O)c2ccccc2)C[C@H]2O[C@]1(C)n1c3ccccc3c3c4c(c5c6ccccc6n2c5c31)C(=O)NC4 [Midostaurin] + CS(=O)(=O)N1CCN(Cc2cc3nc(-c4cccc5[nH]ncc45)nc(N4CCOCC4)c3s2)CC1 [Pictilisib] (partner 1 µM)
In short: as §1

[4] = compound: CO[C@@H]1[C@H](N(C)C(=O)c2ccccc2)C[C@H]2O[C@]1(C)n1c3ccccc3c3c4c(c5c6ccccc6n2c5c31)C(=O)NC4 [Midostaurin] + CC(C)C[C@H](NC(=O)[C@H](Cc1ccccc1)NC(=O)c1cnccn1)B(O)O [Bortezomib] (partner 0.002 µM)
In short: as §1

[5] = compound: CO[C@@H]1[C@H](N(C)C(=O)c2ccccc2)C[C@H]2O[C@]1(C)n1c3ccccc3c3c4c(c5c6ccccc6n2c5c31)C(=O)NC4 [Midostaurin] + O=C(c1cc(Cc2n[nH]c(=O)c3ccccc23)ccc1F)N1CCN(C(=O)C2CC2)CC1 [Olaparib] (partner 8 µM)
In short: as §1

Row | Cell Line | relative viability ([1]; first compound 0.01 µM) | relative viability ([1]; first compound 0.03162 µM) | relative viability ([1]; first compound 0.1 µM) | relative viability ([1]; first compound 0.3162 µM) | relative viability ([2]; first compound 0.0128 µM) | relative viability ([2]; first compound 0.04048 µM) | relative viability ([2]; first compound 0.128 µM) | relative viability ([2]; first compound 1.28 µM) | relative viability ([3]; first compound 0.01 µM) | relative viability ([3]; first compound 0.03162 µM) | relative viability ([3]; first compound 0.1 µM) | relative viability ([3]; first compound 0.3162 µM) | relative viability ([4]; first compound 0.01 µM) | relative viability ([4]; first compound 0.03162 µM) | relative viability ([4]; first compound 0.1 µM) | relative viability ([4]; first compound 0.3162 µM) | relative viability ([5]; first compound 0.01 µM) | relative viability ([5]; first compound 0.03162 µM) | relative viability ([5]; first compound 0.1 µM) | relative viability ([5]; first compound 0.3162 µM)
1 | NCI-H1437 | 0.816 | 0.895 | 0.853 | 0.933 | 1.14 | 1.15 | 1.04 | 0.96 | 0.58 | 0.567 | 0.567 | 0.599 | 0.556 | 0.499 | 0.478 | 0.545 | 0.618 | 0.665 | 0.629 | 0.516
2 | NCI-H1651 | 0.707 | 0.78 | 0.713 | 0.864 | 0.466 | 0.457 | 0.49 | 0.397 | 0.543 | 0.575 | 0.529 | 0.512 | 0.955 | 1.01 | 1.02 | 1.03 | 0.199 | 0.2 | 0.169 | 0.17
3 | NCI-H1666 | 0.8 | 0.794 | 0.883 | 0.903 | 0.821 | 0.841 | 0.802 | 0.741 | 0.406 | 0.359 | 0.523 | 0.516 | 0.852 | 0.894 | 0.882 | 0.888 | 0.709 | 0.708 | 0.694 | 0.673
4 | NCI-H1734 | 0.57 | 0.589 | 0.632 | 0.552 | 0.614 | 0.519 | 0.578 | 0.508 | 0.465 | 0.424 | 0.496 | 0.303 | 0.868 | 0.886 | 0.915 | 0.786 | 0.603 | 0.562 | 0.62 | 0.69
5 | NCI-H1755 | 0.74 | 0.677 | 0.678 | 0.483 | 0.501 | 0.344 | 0.371 | 0.417 | 0.397 | 0.345 | 0.407 | 0.332 | 0.914 | 0.912 | 0.887 | 0.755 | 0.864 | 0.884 | 0.783 | 0.779
6 | NCI-H1792 | 0.664 | 0.8 | 0.659 | 0.617 | 0.646 | 0.679 | 0.632 | 0.517 | 0.323 | 0.25 | 0.257 | 0.244 | 0.943 | 0.949 | 0.911 | 0.949 | 0.383 | 0.308 | 0.249 | 0.146
7 | NCI-H1915 | 0.623 | 0.555 | 0.568 | 0.597 | 0.714 | 0.665 | 0.69 | 0.448 | 0.913 | 0.852 | 1.01 | 0.98 | 0.936 | 1 | 0.968 | 0.993 | 0.257 | 0.249 | 0.243 | 0.224
8 | NCI-H1975 | 0.784 | 0.838 | 0.752 | 0.607 | 0.761 | 0.731 | 0.632 | 0.429 | 0.277 | 0.273 | 0.263 | 0.248 | 0.325 | 0.513 | 0.446 | 0.322 | 0.733 | 0.677 | 0.701 | 0.466
9 | NCI-H1993 | 0.519 | 0.546 | 0.54 | 0.576 | 0.823 | 0.549 | 0.715 | 0.752 | 0.775 | 0.817 | 0.898 | 0.722 | 1.03 | 1.15 | 1.08 | 1.11 | 1.08 | 0.791 | 1.01 | 1.11
10 | NCI-H2085 | 0.752 | 0.655 | 0.837 | 0.461 | 1.08 | 0.929 | 0.854 | 0.427 | 0.501 | 0.428 | 0.448 | 0.446 | 0.968 | 0.963 | 1.08 | 0.946 | 0.76 | 0.708 | 0.834 | 0.711
11 | NCI-H2087 | 0.567 | 0.491 | 0.573 | 0.554 | 1.31 |  | 1.18 | 1.08 | 0.851 | 0.769 | 0.979 | 1.18 | 0.827 | 0.717 | 0.542 | 0.841 | 0.585 | 0.539 | 0.635 | 0.608
12 | NCI-H2126 | 0.808 | 0.545 | 0.685 | 0.666 | 1.06 | 0.988 | 0.976 | 0.817 | 0.541 | 0.441 | 0.499 | 0.523 | 1.07 | 1.08 | 1.03 | 1.12 | 0.813 | 0.901 | 0.853 | 0.779
13 | NCI-H2347 | 0.453 | 0.35 | 0.365 | 0.38 | 0.773 | 0.55 | 0.64 | 0.565 | 0.48 | 0.493 | 0.648 | 0.634 | 0.842 | 0.95 | 0.956 | 0.976 | 0.602 | 0.54 | 0.424 | 0.519
14 | NCI-H2405 | 0.65 | 0.6 | 0.525 | 0.633 | 0.707 | 0.615 | 0.573 | 0.349 | 0.464 | 0.516 |  | 0.379 | 1.02 | 0.985 | 0.979 | 1.01 | 0.841 | 0.827 | 0.838 | 0.861
15 | NCI-H3122 | 0.932 | 0.492 | 1.06 | 1.41 | 1.06 |  | 0.958 | 0.845 | 0.681 | 0.583 | 0.64 | 0.734 | 0.991 | 0.968 | 1.04 | 1.02 | 0.655 | 0.614 | 0.573 | 0.723
16 | PC-3 [JPC-3] | 0.718 | 0.579 | 0.78 | 0.806 | 0.654 | 0.877 | 0.834 | 0.76 | 0.787 | 0.623 | 0.785 | 0.789 | 0.891 | 0.734 | 0.683 | 0.85 | 1.08 | 0.946 | 1.05 | 1.07
17 | PC-14 | 0.92 | 0.811 | 0.875 | 1.02 | 0.42 | 0.417 | 0.365 | 0.355 | 0.674 | 0.61 | 0.633 | 0.75 | 0.839 | 0.713 | 0.811 | 0.815 | 0.328 | 0.281 | 0.206 | 0.199
18 | RERF-LC-KJ | 0.622 | 0.614 | 0.673 | 0.663 | 0.911 | 0.949 | 0.981 | 0.749 | 0.501 | 0.51 | 0.579 | 0.46 | 1.16 | 1.18 | 1.16 | 1.23 | 0.819 | 0.839 | 0.814 | 0.716
